| Compound | melting point [°C] |
| --- | --- |
| CCOc1ccc(C(=O)CC(C(=O)O)N2CCOCC2)cc1OC (configuration not stated) | 157 |
| Cc1ccc(-n2ccc3c(Cl)nn(C)c(=O)c32)c(C)c1 | 119 to 120 |
| CCCCCSC1=C(SCCCCC)SC(=C2SC3=C(CN(S(=O)(=O)c4ccc(C)cc4)C3)S2)S1 | 136 to 137 |
| CC1(C)CC(=O)c2c(ncc3[nH]c4cc(Cl)ccc4c23)C1 | 257 to 259 |
| COc1noc2c1CN(C(C)=O)CC2 | 40 to 42 |
| CCOP(=S)(OCC)Oc1nsc(C)c1C(N)=O | 68 |
| O=C(O)CN(C(=O)CCSC(=O)c1ccccc1)[C@H]1CC[C@H](c2ccccc2)CC1 | 125 to 128 |
| COc1c(Br)c(O)c(C=O)c(OC)c1Br | 103 to 104 |
| CCCCSc1cc(C(=O)OCC)cc(S(N)(=O)=O)c1Cc1ccccc1 | 120 to 122 |
| CC1(C)Oc2ccc(C#N)cc2[C@@H](N2CCSC2=NC#N)[C@@H]1O | 272 to 274 |
| CC(C)NCC(O)c1ccc2c(c1)OCO2 (configuration not stated) | 117 to 118 |
| CSC(C)=NOC(=O)NCSN(P1OCC(C)(C)CO1)C(C)(C)C | 167 to 168 |
| Fc1cc(CC2(Cc3ccncc3)c3ccccc3Oc3ccccc32)ccn1 | 180 to 181 |
| COc1ccc(OCCc2c[nH]cn2)cc1 | 178 to 181 |
| CC(=O)c1ccc2c(c1)C1(C)C3(C)CCC(C3)C1(C)O2 (configuration not stated) | 140 to 142 |
| O=C(O)Cc1cc(C(=O)c2cccc(Cl)c2)ccc1O | 186 |
| Cn1nc(-c2cc(C(=O)O)c(Cl)cc2Cl)c(Cl)c1OC(F)F | 159 to 160 |
| NC(=O)[C@H]1CN2C(=O)N(c3cc(Cl)cc(Cl)c3)C(=O)[C@]2(Cc2ccc(OC(F)(F)F)cc2)C1 | 123 |

The next lines start with the values.

| melting point [°C] | Compound |
| --- | --- |
| 204 to 205 | CNCc1ccc2nc(NC(=O)c3ccc(C(C)(C)C)cc3)cn2c1 |
| 187 | COC(=O)c1ccc(CN2CCOc3cc4c(cc32)C(C)(C)CCC4(C)C)cc1 |
| 125 | COC(=O)c1ccc(CC(C)(C)NCC(O)c2ccccc2)cc1 (configuration not stated) |
| 180 to 182 | COc1ccc(-c2cccc(S(=O)(=O)N3CCC(Nc4nc(Nc5cccc(C(F)(F)F)c5)nc(OCC(F)(F)F)n4)CC3)c2)cc1 |
| 165 to 166 | COc1ccc2cc(C3=C(CC(=O)O)CCCC3=O)ccc2c1Br |
| 184 | C=Cc1c(C)oc(-c2ccc(S(C)(=O)=O)cc2)c(Oc2ccc(F)cc2F)c1=O |
| 236 to 244 | CNC(=O)c1ccc(C=CC(=O)Nc2cccc(-c3ccc(C)c(CCl)c3C)c2)cc1 |
| 122 to 124 | COc1ccc(C(O)CN2CCN(c3cccccc3=O)CC2)cc1OC (configuration not stated) |
| 192 to 193 | O=C(Nc1ccc(-n2nc(C(F)(F)F)cc2C(F)(F)F)cc1)c1cccc(I)c1 |
| 148 to 149 | COc1ccc(-c2ccc(C(=O)Nc3ccc4cc(CN5CCCCC5)cnc4c3C)cc2F)cc1 |
| 251 to 256 | O=C(O)c1nn(Cc2cccc(O)c2)c2c1CCc1cc(OCc3cncnc3)ccc1-2 |
| 158 to 159 | Cc1oc(-c2ccccc2)nc1CCOc1ccc(CC(C)(C(=O)O)n2ccc(Br)c2)cc1 (configuration not stated) |
| 104 to 105 | Nc1nc(-c2ccccc2)cc(C2CCN(C(=O)c3ccccc3)CC2)n1 |
| 186 to 189 | N#Cc1ccc(O[C@H]2CC[C@H](NC(=O)Nc3ccc(OC(F)(F)F)cc3)CC2)cc1 |
| 117 to 118 | CS(=O)c1cccc(-c2ncn(CCCN3CCOCC3)c2-c2ccncc2)c1 (configuration not stated) |
| 150 to 151 | CCN(C(=O)C(C)n1c(=O)n(C)c2nc(-c3ccccc3)ncc21)c1ccccc1 (configuration not stated) |
| 203 to 206 | CC(C)c1ccc(N(Cc2ccc(N(C)C)cc2)C(=O)Nc2c(C(C)C)cccc2C(C)C)cc1 |
| 142 to 143 | Cc1ccc(OCC(=O)N(Cc2nc(-c3ccc(C)cc3)no2)C(C)C)cc1 |
| 155 to 157 | O=C(CCN1CCN(c2cccc(C(F)(F)F)c2)CC1)c1ccc2c(c1)Cc1cc(C(=O)CCN3CCN(c4cccc(C(F)(F)F)c4)CC3)ccc1O2 |
